This is an account of results in patent US20230159467A1, “NOVEL COMPOUNDS USEFUL IN THE TREATMENT AND/OR PREVENTION OF A DISEASE, DISORDER OR CONDITION ASSOCIATED WITH ANGIOTENSIN II” (Vicore Pharma AB, priority 2020, published 2023).

One data set deals with CYP2C19 (Homo sapiens, UniProt P33261). The data set is described as follows: CYP450 inhibition assay, pooled human liver microsomes, omeprazole substrate. The note with it: both, human, pooled human liver microsomes, pH 7.4, probe omeprazole.
Another data set deals with T1, CYP1A (Homo sapiens, UniProt P05177).
T1 sequence (P05177 1-516): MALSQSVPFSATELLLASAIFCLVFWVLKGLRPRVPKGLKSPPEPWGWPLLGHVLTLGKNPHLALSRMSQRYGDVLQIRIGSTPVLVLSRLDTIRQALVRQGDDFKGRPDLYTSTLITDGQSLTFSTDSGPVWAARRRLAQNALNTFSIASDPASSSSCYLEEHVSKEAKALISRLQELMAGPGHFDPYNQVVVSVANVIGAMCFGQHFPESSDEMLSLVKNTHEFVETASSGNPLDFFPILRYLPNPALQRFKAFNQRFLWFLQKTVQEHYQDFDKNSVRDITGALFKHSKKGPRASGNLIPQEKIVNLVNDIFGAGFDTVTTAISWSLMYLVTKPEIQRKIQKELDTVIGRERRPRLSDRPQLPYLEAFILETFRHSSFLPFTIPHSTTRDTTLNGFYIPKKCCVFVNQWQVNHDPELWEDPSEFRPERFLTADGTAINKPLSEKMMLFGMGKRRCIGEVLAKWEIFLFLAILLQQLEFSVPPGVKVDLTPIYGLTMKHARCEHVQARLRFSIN
The data set is described as follows: CYP450 inhibition assay, pooled human liver microsomes, phenacetin substrate. The note with it: for inhibition at 10 min, 10 µM: both, human, pooled human liver microsomes, pH 7.4, probe phenacetin. Background: Liver microsomes are a subcellular fraction often used to study metabolism.

Data set [1] concerns CYP3A. The data set is described as follows: CYP450 inhibition assay, pooled human liver microsomes, testosterone substrate. The note with it: at 10 μM; for inhibition at 10 min, 10 µM: both, human, pooled human liver microsomes, pH 7.4, probe testosterone, CYP 450 Inhibition CYP3A testosterone.
Method: The compound was tested at a single concentration (10 μM) with 0.1% DMSO. […] The reaction was initiated by adding a NADPH-generating system. The reaction was allowed for 10 min and stopped by transferring the reaction mixture to acetonitrile/methanol. Samples were mixed and centrifuged. Supernatants were used for HPLC-MS/MS of the respective metabolite. The activity of human cytochrome P450 (CYP) enzymes were determined by following the formation of a metabolite of the probe substrate. The following enzymes were evaluated for inhibition using the listed reference substrates and reference inhibitors:
CYP1A—phenacetin (reference inhibitor furafylline), CYP2B6—bupropion (reference inhibitor clopidogre), CYP2C8-amodiaquine (reference inhibitor montelukast), CYP2C9—diclofenac (reference inhibitor sulfaphenazole), CYP2C19—omeprazole (reference inhibitor oxybutynin), CYP2D6—dextromethorphan (reference inhibitor quinidine), CYP3A—midazolam (reference inhibitor ketoconazol) and CYP3A—testosterone (reference inhibitor ketoconazol). The reference inhibitors were tested in each assay at multiple concentrations to obtain an IC50 value. Peak areas corresponding to the metabolite were recorded. The percent of control activity was calculated by comparing the peak area in the presence of the test compound to the control samples containing the same solvent. Subsequently, the percent inhibition was calculated by subtracting the percent control activity from 100. The IC50 value (concentration causing a half-maximal inhibition of the control value) was determined by non-linear regression analysis of the concentration-response curve using the Hill equation.
Data set [2] in a line: Stability in rat liver microsomes. In kind it is in vitro ADME. The following applies: half-life. As for the experimental part:
(§1) Stability in liver microsomes. Human, mouse and rat liver microsomes were used to assess the metabolic stability for the compounds. Metabolic stability was determined in 0.5 mg/mL human, mouse or rat liver microsomes at a compound concentration of 1 μM in 100 mM potassium phosphate buffer (pH 7.4) in a total incubation volume of 500 μL by Eurofins. The assay matrix was: human liver microsomes: mixed gender and pool of 50, rat liver microsomes: male, Sprague-Dawley, pool of 100 or more and mouse liver microsomes: male,CD-1, pool of 250 or more. Final microsomal protein concentration: 0.1mg/mL. The test concentration was 0.1 μM with 0.01% DMSO, 0.25% acetonitrile and 0.25% methanol by default. […] The reaction was initiated by adding NADPH-generating system and was incubated for 0, 15, 30, 45, and 60 min. The reaction was stopped by transferring the incubation mixture to acetonitrile/methanol. Samples were then mixed and centrifuged. Four reference compounds were tested in each assay. Propranolol and imipramine are relatively stable, whereas verapamil and terfenadine are readily metabolized inhuman liver microsomes. Samples were analyzed by HPLC-MS/MS using selected reaction monitoring. The HPLC system consisted of a binary LC pump with autosampler, a C-18 column, and a gradient. Peak areas corresponding to the test compound were recorded. The compound remaining was calculated by comparing the peak area at each time point to time zero. The half-life was calculated from the slope of the initial linear range of the logarithmic curve of compound remaining (%) vs. time, assuming first order kinetics. In addition, the intrinsic clearance (Clint) was calculated.^19,20

For another data set, the target named is T2, CYP2B6 (Homo sapiens, UniProt P20813).
T2 sequence (P20813 1-491): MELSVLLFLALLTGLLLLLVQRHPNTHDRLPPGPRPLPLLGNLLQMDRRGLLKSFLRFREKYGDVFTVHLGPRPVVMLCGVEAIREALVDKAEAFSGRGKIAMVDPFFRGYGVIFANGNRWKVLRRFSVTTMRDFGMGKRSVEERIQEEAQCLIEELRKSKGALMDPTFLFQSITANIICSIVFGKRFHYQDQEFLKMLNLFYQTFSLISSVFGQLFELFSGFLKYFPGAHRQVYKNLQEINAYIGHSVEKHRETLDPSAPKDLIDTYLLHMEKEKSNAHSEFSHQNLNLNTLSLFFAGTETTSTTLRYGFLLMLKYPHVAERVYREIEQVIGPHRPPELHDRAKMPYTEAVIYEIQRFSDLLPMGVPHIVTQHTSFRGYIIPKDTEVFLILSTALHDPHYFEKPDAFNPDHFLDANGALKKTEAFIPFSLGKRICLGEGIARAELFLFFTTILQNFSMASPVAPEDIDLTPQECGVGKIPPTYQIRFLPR
The data set is described as follows: CYP450 inhibition assay, pooled human liver microsomes, bupropion substrate. The note with it: for inhibition at 10 min, 10 µM: both, human, pooled human liver microsomes, pH 7.4, probe bupropion.

Data set [3] has as its system CYP3A. The data set is described as follows: CYP450 inhibition assay, pooled human liver microsomes, midazolam substrate. The following applies: for inhibition at 10 min, 10 µM: both, human, pooled human liver microsomes, pH 7.4, probe midazolam.
In another data set the target is CYP2D6 (Homo sapiens, UniProt P10635). The data set is described as follows: CYP450 inhibition assay, pooled human liver microsomes, dextromethorphan substrate. The note with it: for inhibition at 10 min, 10 µM: both, human, pooled human liver microsomes, pH 7.4, probe dextromethorphan.
The next data set deals with T3, CYP2C8 (Homo sapiens, UniProt P10632).
T3 sequence (P10632 1-490): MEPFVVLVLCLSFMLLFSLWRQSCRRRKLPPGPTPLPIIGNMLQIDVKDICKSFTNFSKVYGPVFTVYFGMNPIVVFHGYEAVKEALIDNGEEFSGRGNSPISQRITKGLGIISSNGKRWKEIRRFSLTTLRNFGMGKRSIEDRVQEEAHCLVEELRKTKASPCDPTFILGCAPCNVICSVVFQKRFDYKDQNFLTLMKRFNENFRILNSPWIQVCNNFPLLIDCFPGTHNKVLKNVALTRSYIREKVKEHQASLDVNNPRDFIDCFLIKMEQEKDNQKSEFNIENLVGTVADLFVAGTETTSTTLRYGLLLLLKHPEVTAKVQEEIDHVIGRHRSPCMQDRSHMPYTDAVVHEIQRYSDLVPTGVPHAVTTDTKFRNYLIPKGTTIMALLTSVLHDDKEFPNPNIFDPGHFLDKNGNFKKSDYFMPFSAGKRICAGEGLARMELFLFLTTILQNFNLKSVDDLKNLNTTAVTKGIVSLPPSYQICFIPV
The data set is described as follows: CYP450 inhibition assay, pooled human liver microsomes, amodiaquine substrate. The note with it: for inhibition at 10 min, 10 µM: both, human, pooled human liver microsomes, pH 7.4, probe amodiaquine.

The target in another data set is CYP2C9 (Homo sapiens, UniProt P11712). The data set is described as follows: CYP450 inhibition assay, pooled human liver microsomes, diclofenac substrate. The note with it: both, human, pooled human liver microsomes, pH 7.4, probe diclofenac.
The nature of data set [4]: Stability in human liver microsomes. In kind it is in vitro ADME. The note with it: half-life. As for the experimental part: as §1
Data set [5] in a line: Stability in mouse liver microsomes. In kind it is in vitro ADME. The following applies: half-life. On the procedure: as §1
Data set [6] is described as follows: Kinetic solubility in PBS pH 7.4. Format: physicochemical. The note with it: Dulbecco's PBS buffer, aqueous buffer, kinetic from dmso stock; PBS pH 7.4, 24 h room temperature, 2% DMSO. As for the experimental part: Kinetic solubility. Dulbecco's PBS buffer was used (NaCl 137 mM, KCl 2.7 mM, Na2HPO4 8.1 mM, KH2PO4 1.5 mM with pH 7.4). The test compound is prepared at 200 μM in the PBS buffer from a 10 mM DMSO stock solution. The final DMSO concentration is 2%. The buffer samples were mixed thoroughly followed by incubation at room temperature for 24 h. At the end of the incubation, the buffer samples were centrifuged and supernatants were then injected for the HPLC analysis. A calibration standard of the test compound was prepared at 200 μM in methanol/water (3/2, v/v) from a 10 mM DMSO stock solution on the day of HPLC analysis. The analysis was conducted by HPLC-UV/VIS with photodiode array detection, with monitoring at 205, 230, 260, and 300 nm wavelengths. The HPLC system consisted of a C18 column using a gradient of A and B (A=12 mM ammonium formate, 6 mM formic acid in water, pH 4.0, B=6 mM ammonium formate, 3 mM formic acid acetonitrile/water (9/1, v/v)). Reference compounds used were metoprolol, rifampicin, ketoconazole, phenytoin, haloperidol, simvastatin, diethylstilbestrol, and tamoxifen, ranking from fully soluble (200 μM) to poorly soluble (<1μM). […] The range of the assay was approximately 0.5 μM to 200 μM. The chromatographic purity (%) was determined as the peak area of the principal peak relative to the total integrated peak areas in the HPLC chromatogram of the calibration standard.

Where only a bound is given, the exact number is not on record here.

CYP2D6, sequence (P10635 whole entry): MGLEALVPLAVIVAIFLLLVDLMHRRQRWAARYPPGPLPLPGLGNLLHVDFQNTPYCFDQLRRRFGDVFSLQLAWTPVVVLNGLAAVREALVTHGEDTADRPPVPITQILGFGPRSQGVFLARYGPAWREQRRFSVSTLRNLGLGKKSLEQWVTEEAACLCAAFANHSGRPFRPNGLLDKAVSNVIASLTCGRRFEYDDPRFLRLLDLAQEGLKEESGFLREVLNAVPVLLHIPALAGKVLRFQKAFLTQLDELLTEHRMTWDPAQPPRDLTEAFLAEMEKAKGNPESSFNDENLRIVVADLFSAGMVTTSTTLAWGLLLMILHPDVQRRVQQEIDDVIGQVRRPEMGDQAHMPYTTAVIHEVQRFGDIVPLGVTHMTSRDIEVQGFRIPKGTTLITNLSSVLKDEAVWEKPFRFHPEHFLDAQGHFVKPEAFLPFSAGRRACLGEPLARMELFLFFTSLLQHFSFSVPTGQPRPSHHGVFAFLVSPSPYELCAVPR
CYP2C19, sequence (P33261 whole entry): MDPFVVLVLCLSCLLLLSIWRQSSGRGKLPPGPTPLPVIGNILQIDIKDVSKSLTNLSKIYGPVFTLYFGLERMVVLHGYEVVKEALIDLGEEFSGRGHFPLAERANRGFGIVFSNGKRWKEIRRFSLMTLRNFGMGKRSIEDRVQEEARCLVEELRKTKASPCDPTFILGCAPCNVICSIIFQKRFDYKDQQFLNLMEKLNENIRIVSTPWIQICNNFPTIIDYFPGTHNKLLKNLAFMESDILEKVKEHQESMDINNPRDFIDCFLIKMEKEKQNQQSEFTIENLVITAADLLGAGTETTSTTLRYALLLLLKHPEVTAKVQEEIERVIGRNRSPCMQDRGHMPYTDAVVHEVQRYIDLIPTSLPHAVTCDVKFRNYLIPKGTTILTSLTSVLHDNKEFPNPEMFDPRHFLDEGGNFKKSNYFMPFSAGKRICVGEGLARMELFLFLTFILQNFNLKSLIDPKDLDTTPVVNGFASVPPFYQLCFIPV
CYP2C9, sequence (P11712 whole entry): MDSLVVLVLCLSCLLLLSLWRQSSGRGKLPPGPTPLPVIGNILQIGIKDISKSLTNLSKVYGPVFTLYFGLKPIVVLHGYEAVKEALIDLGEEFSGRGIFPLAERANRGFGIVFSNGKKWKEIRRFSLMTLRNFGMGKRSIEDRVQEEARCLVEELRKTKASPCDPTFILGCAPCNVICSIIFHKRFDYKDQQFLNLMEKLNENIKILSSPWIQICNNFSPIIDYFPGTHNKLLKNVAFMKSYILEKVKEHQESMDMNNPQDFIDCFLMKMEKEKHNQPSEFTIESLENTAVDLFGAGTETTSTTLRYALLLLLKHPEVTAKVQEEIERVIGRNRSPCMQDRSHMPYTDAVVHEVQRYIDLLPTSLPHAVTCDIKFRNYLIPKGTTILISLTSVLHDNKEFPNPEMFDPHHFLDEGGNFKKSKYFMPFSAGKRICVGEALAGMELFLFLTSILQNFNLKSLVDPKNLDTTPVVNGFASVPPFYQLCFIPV

In general, inhibition refers to the relative decrease from the control value, in per cent. For orientation: solubility (kinetic) means solubility judged after dilution from a stock solution rather than from solid. On to `CCCCOC(=O)[N-]S(=O)(=O)c1ccc(CC(C)C)cc1-c1ccc(Cn2ccnc2C(C)(C)O)cc1.[K+]` [Example 7B, Potassium (butoxycarbonyl)((4′-((2-(2-hydroxypropan-2-yl)-1H-imidazol-1-yl)methyl)-5-isobutyl-[1,1′-biphenyl]-2-yl)sulfonyl)amide], for which the inhibition at 10 min, 10 µM against CYP2C19 was 52%; against CYP1A, -50%; in the data set with CYP3A [1], 3.1%; on CYP2B6, 40%; in the data set with CYP3A [3], -10.7%; against CYP2D6, 16%. Further, the inhibition at 10 min, 10 µM against CYP2C8 is 68%; on CYP2C9, 74%. In data set [2], the “Stability in liver microsomes RLM” value stood at 22 min. Moreover, the “Stability in liver microsomes HLM” value in data set [4] is recorded as 28 min. Besides, the “Stability in liver microsomes MLM” value in data set [5] is given as 20 min. Further, the kinetic solubility at 24 h in data set [6] was over 200 µM.
For the compound `COC(=O)[N-]S(=O)(=O)c1sc(CC(C)C)cc1-c1ccc(Cn2ccnc2C(C)(C)C)cc1.[K+]` [Example 12B, Potassium ((3-(4-((2-(tert-butyl)-1H-imidazol-1-yl)methyl)phenyl)-5-isobutylthiophen-2-yl)sulfonyl)(methoxycarbonyl)amide], the inhibition at 10 min, 10 µM was 36% on CYP2C19; 8.3% at CYP1A; 6.8% in the data set with CYP3A [1]; 25% against CYP2B6; -11.6% in the data set on CYP3A [3]; 1.6% on CYP2D6. The inhibition at 10 min, 10 µM is 73% against CYP2C8 and 29% at CYP2C9. Moreover, in data set [2], the “Stability in liver microsomes RLM” value is given as over 60 min. Also, the “Stability in liver microsomes HLM” value in [4] is given as over 60 min. Also, the “Stability in liver microsomes MLM” value in data set [5] is listed as 39 min. Also, the kinetic solubility at 24 h in [6] was over 200 µM.
`CCCCOC(=O)[N-]S(=O)(=O)c1sc(CC(C)C)cc1-c1ccc(Cn2ccnc2)cc1.[Na+]` [Example 13, Sodium ((3-(4-((1H-imidazol-1-yl)methyl)phenyl)-5-isobutylthiophen-2-yl)sulfonyl)(butoxycarbonyl)amide, reference compound]: the inhibition at 10 min, 10 µM against CYP2C19 was 93%; on CYP1A, 77%; in the data set with CYP3A [1], 84%; at CYP2B6, 53%; at CYP2C8, 69%. In addition, the “CYP 450 Inhibition CYP1A” value on CYP1A (at 10 μM) stood at 89%. Also, in the data set with CYP3A [1], the “CYP 450 Inhibition CYP3A testosterone” value worked out at 90%. In data set [2], the “Stability in liver microsomes RLM” value came to 20 min. Further, the “CYP 450 Inhibition CYP2B6” value on CYP2B6 (at 10 μM) came to 63%. In the data set on CYP3A [3] (at 10 μM, midazolam substrate), the “CYP 450 Inhibition CYP3A midazolam” value is given as 93%. On CYP2D6 (at 10 μM), the “CYP 450 Inhibition CYP2D6” value was determined as 90%. Also, on CYP2C8 (at 10 μM), the “CYP 450 Inhibition CYP2C8” value worked out at 82%. For the same compound, in [4], the “Stability in liver microsomes HLM” value was determined as 36 min. Besides, in data set [5], the “Stability in liver microsomes MLM” value stood at 39 min. For the same compound, the kinetic solubility at 24 h in data set [6] came to 198 µM.
For `CCCCOC(=O)[N-]S(=O)(=O)c1ccc(CC(C)C)cc1-c1ccc(Cn2ccnc2C(C)(C)C)cc1.[K+]` [Example 2B, Potassium ((4′-((2-(tert-butyl)-1H-imidazol-1-yl)methyl)-5-isobutyl-[1,1′-biphenyl]-2-yl)sulfonyl)(butoxycarbonyl)amide], the inhibition at 10 min, 10 µM against CYP2C19 was found to be 71%; at CYP1A, 4.5%; in the data set on CYP3A [1] it was 27%; on CYP2B6, 57%; in the data set with CYP3A [3], 16%; on CYP2D6, 15%. For the same compound, the values for the inhibition at 10 min, 10 µM against CYP2C8 and against CYP2C9 were 81% and 91%, respectively. The “Stability in liver microsomes RLM” value in [2] amounted to 8 min. For the same compound, the “Stability in liver microsomes HLM” value in data set [4] is listed as 11 min. The “Stability in liver microsomes MLM” value in data set [5] is 10 min. For the same compound, the solubility (kinetic) at 24 h in data set [6] came to 183 µM.
